≈ marks a conversion by molar mass, not a printed value.
Legend:
Assay type in all cases: in vivo
Plasmopara viticola [1] = assay: Direct protectant activity against vine downy mildew (Pvp); set-up: Pvp: direct protectant activity against vine downy mildew: scale not given here; conditions: foliar spray, 1 kg/ha; activity grade 1 or 2, not defined
Method in brief: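 Lower leaf surfaces of whole vine plants (cv Cabernet Sauvignon) were sprayed at 1 kg/ha in water/acetone with surfactant, then inoculated 24 h later with 10^4 zoosporangia/ml. Scored as % leaf area with sporulation versus control leaves.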

Leptosphaeria nodorum = assay: Direct antisporulant activity against wheat leafspot (Ln); set-up: scale not given here; conditions: foliar spray, 1 kg/ha; activity grade 1 or 2, not defined
Method in brief: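 Single-leaf wheat plants were spray-inoculated with 8×10^5 spores/ml and held 24 h at high humidity before foliar spray treatment. Plants were then kept 5 days in the glasshouse. Read-out is the percentage of leaf area sporulating, relative to untreated controls.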

Puccinia Recondita = assay: Direct protectant activity against wheat brown rust (Pr); set-up: scale not given here; conditions: foliar spray, 1 kg/ha, 10 days; activity grade 1 or 2, not defined
Protocol: (i) Activity Against Wheat Brown Rust (Puccinia Recondita; Pr) The test is a direct protectant one using a foliar spray. […] The plants are then sprayed with the test compound at a dosage of 1 kg/ha using a track sprayer as described under (a). Test compounds are applied as solutions or suspensions in a mixture of acetone and water (50:50 v/v) containing 0.04% surfactant ("TWEEN 20"--Trade Mark). 18-24 hours after treatment, the seedlings are inoculated by spraying the plants from all sides with an aqueous spore suspension containing about 10^5 spores/ml. For 18 hours after inoculation, the plants are kept in high humidity conditions at a temperature of 20°-22° C. Thereafter, the plants are kept in ambient glasshouse conditions, that is, in moderate relative humidity and at a temperature of 20° C. The disease is assessed 10 days after inoculation on the basis of the percentage of the plant covered by sporulating pustules compared with that on the control plants.

Botrytis cinerea = assay: Direct protectant activity against vine grey mould (Bcp); conditions: for Bcp: direct protectant activity against vine grey mould: foliar spray, 1 kg/ha, activity grade 1 or 2, not defined
Source text: (b) Direct Protectant Activity Against Vine Grey Mould (Botrytis cinerea; Bcp) The test is a direct protectant one using a foliar spray and is effected as described under (a), with the difference that the leaves are inoculated by spraying with an aqueous solution containing 10^5 conidia/ml.

[2] = system: Erysiphe graminis f.sp. hordei; assay: Direct antisporulant activity against barley powdery mildew (Eg); set-up: scale not given here; conditions: foliar spray, 1 kg/ha; activity grade 1 or 2, not defined
Method in brief: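 Barley seedlings (cv. Golden Promise) were dusted with conidia one day before a foliar spray of compound. Plants were then held at ambient glasshouse conditions for up to 7 days. Sporulating leaf area (%) was scored against untreated control plants.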

Plasmopara viticola [3] = assay: Antisporulant activity against vine downy mildew (Pva); conditions: foliar spray, 1 kg/ha; activity grade 1 or 2, not defined
Protocol: (j) Antisporulant Activity Against Vine Downy Mildew (Plasmopara viticola; Pva)
The test is a direct antisporulant one using a foliar spray. The lower surfaces of leaves of whole vine plants (cv Cabernet Sauvignon) are inoculated by spraying with an aqueous suspension containing 10^4 zoosporangia/ml 2 days prior to treatment with the test compound. The inoculated plants are kept for 24 hours in a high humidity compartment, and then 24 hours at glasshouse ambient temperature and humidity. When the plants are dry, infected leaves are sprayed on their lower surfaces with a solution of active material in 1:1 water/acetone containing 0.04% w/w "Triton X-155" (trade mark) (an octylphenol polyethoxylate surfactant). The spraying is carried out with a moving track sprayer with delivers 620 liter/ha, and the concentration of active material is calculated to give an application rate of 1 kg/ha. After spraying, the plants are returned to normal glasshouse conditions for 96 hours and are then transferred to the high humidity compartment for 24 hours to induce sporulation, prior to assessment. Assessment is visual and is based on the percentage of the leaf area covered by sporulation compared with that on control leaves.

Plasmopara viticola [4] = assay: Translaminar protectant test, vine downy mildew (Pvt); conditions: secondary screening
Source text: The fungicidal activity of certain of the compounds was investigated further, in secondary screening.

Alternaria Solani = assay: Direct protectant activity against tomato early blight (As); set-up: As: activity against tomato early blight: scale not given here; conditions: for As: activity against tomato early blight: foliar spray as under (a), 8 days, activity grade 1 or 2, not defined; for As: activity against tomato early blight: dose 1000 g/ha
Protocol: (g) Activity Against Tomato Early Blight (Alternaria Solani; As). The test is a direct protectant one using a foliar spray. The upper surfaces of leaves of young tomato plants are sprayed with a solution of active material as described in (a) above. After 24 hours under normal glasshouse conditions, the upper surfaces of the leaves are inoculated by spraying with an aqueous suspension containing 10^4 spores/ml. The inoculated plants are kept for 72 hours in a high humidity compartment and are then removed to lower humidity (50-70% relative humidity). Assessment is made 8 days after inoculation.

[5] = system: rice root nematode Meloidogyne graminicola; assay: Nematicidal water screen; conditions: for activity against the nematodes, water screen: nematodes retained in dilute aqueous solution
Protocol: (§1) The nematicidal activity of the compounds of Example 17 and 23 was investigated. They were tested against the rice root nematode Meloidogyne graminicola in a water screen whereby the effect of retaining the nematodes in a dilute aqueous solution of the compounds was studied, and in a soil drench test in which the propensity of these nematodes to cause knots in the roots of grain sorghum S. bicolor was studied as a function of concentration of the compounds applied to the soil. […] Thus in the water screen test it was determined that the minimum inhibitory concentration of the compound of Example 23 was 0.53 ppm.

[6] = system: rice root nematode Meloidogyne graminicola; assay: Nematicidal soil drench test (root knots in grain sorghum); conditions: knots in roots of grain sorghum S. bicolor
Protocol: as §1

SMILES | Pvp: direct protectant activity against vine downy mildew (Plasmopara viticola [1]) | Ln: activity against wheat leafspot (Leptosphaeria nodorum) | Pr: activity against wheat brown rust (Puccinia Recondita) | Eg: activity against barley powdery mildew [2] | Other: Pva, antisporulant activity against vine downy mildew (Plasmopara viticola [3]) | As: activity against tomato early blight (Alternaria Solani) | also measured
N#CN=[N+]([O-])c1cc(Cl)cc2c1OC(CCl)C2 (stereo not shown) [Example 10] | 2 | 1 | 2 | – | – | – | –
N#CN=[N+]([O-])c1cc(Cl)cc2c1OCC=C2 [Example 26] | 2 | – | 1 | 2 | 2 | – | Bcp: direct protectant activity against vine grey mould (Botrytis cinerea): 2; activity against Pvt (Plasmopara viticola [4]): high activity
CC1(C)C=Cc2cc(F)cc([N+]([O-])=NC#N)c2O1 [Example 29] | – | – | – | 1 | 2 | – | –
N#CN=[N+]([O-])c1ccc2oc(=O)ccc2c1 [Example 1] | 2 | 1 | 2 | – | – | 2 | Bcp: direct protectant activity against vine grey mould (Botrytis cinerea): 1; activity against As (Alternaria Solani; secondary screening): high activity; activity against Pvt (Plasmopara viticola [4]): high activity
Cc1oc2c([N+]([O-])=NC#N)cccc2c1C [Example 18] | 2 | – | 2 | 1 | – | 2 | –
CC1Cc2cc(Cl)cc([N+]([O-])=NC#N)c2O1 (stereo not shown) [Example 6] | 2 | 1 | 2 | – | – | 1 | –
Cc1cc2cc([N+]([O-])=NC#N)ccc2o1 [Example 23] | – | – | 2 | 1 | 2 | 1 | MIC ([5]; Meloidogyne graminicola, water screen, read-out: minimum inhibitory concentration, water screen): 0.53 µg/mL (≈ 2.63 µM); activity against the nematodes, water screen [5]: activity against the nematodes; activity against the nematodes, soil drench test [6]: activity against the nematodes
N#CN=[N+]([O-])c1cccc2c3c(oc12)CCCC3 [Example 17] | 2 | 1 | 1 | – | – | 1 | activity against the nematodes, water screen [5]: activity against the nematodes; activity against the nematodes, soil drench test [6]: activity against the nematodes
CC1(C)Cc2cc(Cl)cc([N+]([O-])=NC#N)c2O1 [Example 4] | 2 | 1 | 2 | – | – | – | –
Cc1cc2cccc([N+]([O-])=NC#N)c2o1 [Example 16] | 2 | – | 1 | – | – | 2 | Bcp: direct protectant activity against vine grey mould (Botrytis cinerea): 2; activity against Bcp (Botrytis cinerea; secondary screening): high activity; activity against Pvt (Plasmopara viticola [4]): high activity
N#CN=[N+]([O-])c1cc(Cl)cc2c1OC(CO)C2 (stereo not shown) [Example 11] | 2 | – | 1 | – | – | – | –
CC1Oc2c(cccc2[N+]([O-])=NC#N)C1C (stereo not shown) [Example 9] | – | 1 | – | 1 | 1 | – | –
CC1Oc2c(cc(Cl)cc2[N+]([O-])=NC#N)C1C (stereo not shown) [Example 5] | 2 | 1 | 2 | 1 | 2 | – | –
